Read-outs that look alike come from different tables or passages of the source.
Target: human PAD4 (hPAD4) (Homo sapiens, UniProt Q9UM07)
Experiment: RFMS Human PAD4 Functional Assay
Format: biochemical
Settings: 5 nM hPAD4, 250 μM BAEE
How it was run: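 RapidFire ESI-MS quantification, normalised to a modified-citrulline internal standard, after phenyl glyoxal (final 4 mM) derivatisation of the TCA-quenched reaction. The enzyme (10 nM) sat 30 min with compound (up to 50 μM final) before 500 μM BAEE (as added) started a 90 min, 37 °C reaction. Buffer: HEPES pH 7.5, 50 μM calcium, 5 μM TPEN.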

[1] = hPAD4 RFMS IC50, human PAD4, rapid-fire mass spectrum (RFMS) assay
[2] = human PAD4, rapid-fire mass spectrum (RFMS) assay, read-out: hPAD4 RFMS IC50

Chain of human PAD4 (hPAD4) (Q9UM07 whole entry): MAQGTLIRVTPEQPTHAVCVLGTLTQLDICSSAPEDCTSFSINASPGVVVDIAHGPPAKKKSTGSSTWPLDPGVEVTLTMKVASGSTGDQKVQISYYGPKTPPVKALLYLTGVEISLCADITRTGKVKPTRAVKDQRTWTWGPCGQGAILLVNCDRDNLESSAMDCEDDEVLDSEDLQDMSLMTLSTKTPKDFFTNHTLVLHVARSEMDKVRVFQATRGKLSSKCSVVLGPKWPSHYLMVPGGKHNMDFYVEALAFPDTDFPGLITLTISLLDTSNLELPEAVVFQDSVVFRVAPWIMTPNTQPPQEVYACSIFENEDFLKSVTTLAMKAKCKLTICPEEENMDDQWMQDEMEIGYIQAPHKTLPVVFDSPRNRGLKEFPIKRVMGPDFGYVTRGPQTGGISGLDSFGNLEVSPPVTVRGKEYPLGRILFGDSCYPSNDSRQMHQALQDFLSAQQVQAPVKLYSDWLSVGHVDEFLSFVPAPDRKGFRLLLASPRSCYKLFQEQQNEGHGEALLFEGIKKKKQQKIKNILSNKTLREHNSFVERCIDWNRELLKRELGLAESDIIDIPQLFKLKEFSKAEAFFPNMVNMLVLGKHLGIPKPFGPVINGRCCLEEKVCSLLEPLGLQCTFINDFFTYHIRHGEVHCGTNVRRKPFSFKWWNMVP

Row | SMILES | IC50 [1] [nM] | IC50 [2] [nM]
1 | COc1cc(C(=O)N2C[C@H]3CC[C@@H]2[C@@H]3N)cc2nc(-c3cc4cccc(NC5CCN(C)CC5)c4n3CC3CC3)n(C)c12 [Example 170, ((1R,4R,7R)-7-amino-2-azabicyclo[2.2.1]heptan-2-yl)(2-(1-(cyclopropylmethyl)-7-((1-methylpiperidin-4-yl)amino)-1H-indol-2-yl)-7-methoxy-1-methyl-1H-benzo[d]imidazol-5-yl)methanone] | 59 | 
2 | COc1cc(C(=O)N2C[C@H]3CC[C@@H]2[C@@H]3N)cc2nc(-c3cc4cccc(Nc5cnn(C)c5)c4n3CC3CC3)n(C)c12 [Example 171, ((1R,4R,7R)-7-amino-2-azabicyclo[2.2.1]heptan-2-yl)(2-(1-(cyclopropylmethyl)-7-((1-methyl-1H-pyrazol-4-yl)amino)-1H-indol-2-yl)-7-methoxy-1-methyl-1H-benzo[d]imidazol-5-yl)methanone] | 96 | 
3 | COc1cc(C(=O)N2C[C@H]3CC[C@@H]2[C@@H]3N)cc2nc(-c3cc4cccc(Nc5c(C)n[nH]c5C)c4n3CC3CC3)n(C)c12 [Example 172, ((1R,4R,7R)-7-amino-2-azabicyclo[2.2.1]heptan-2-yl)(2-(1-(cyclopropylmethyl)-7-((3,5-dimethyl-1H-pyrazol-4-yl)amino)-1H-indol-2-yl)-7-methoxy-1-methyl-1H-benzo[d]imidazol-5-yl)methanone] | 43 | 
4 | COc1cc(C(=O)N2C[C@H]3CC[C@@H]2[C@@H]3N)cc2nc(-c3cc4cccc(Nc5cn(C)nc5C)c4n3CC3CC3)n(C)c12 [Example 173, ((1R,4R,7R)-7-amino-2-azabicyclo[2.2.1]heptan-2-yl)(2-(1-(cyclopropylmethyl)-7-((1,3-dimethyl-1H-pyrazol-4-yl)amino)-1H-indol-2-yl)-7-methoxy-1-methyl-1H-benzo[d]imidazol-5-yl)methanone] | 42 | 
5 | COc1cc(C(=O)N2C[C@H]3CC[C@@H]2[C@@H]3N)cc2nc(-c3cc4cccc(Nc5c(C)nn(C)c5C)c4n3CC3CC3)n(C)c12 [Example 174, ((1R,4R,7R)-7-amino-2-azabicyclo[2.2.1]heptan-2-yl)(2-(1-(cyclopropylmethyl)-7-((1,3,5-trimethyl-1H-pyrazol-4-yl)amino)-1H-indol-2-yl)-7-methoxy-1-methyl-1H-benzo[d]imidazol-5-yl)methanone] | 41 | 
6 | COc1cc(C(=O)N2C[C@H]3CC[C@@H]2[C@@H]3N)cc2nc(-c3cc4cccc(Nc5cnn(CC(F)F)c5)c4n3CC3CC3)n(C)c12 [Example 175, ((1R,4R,7R)-7-amino-2-azabicyclo[2.2.1]heptan-2-yl)(2-(1-(cyclopropylmethyl)-7-((1-(2,2-difluoroethyl)-1H-pyrazol-4-yl)amino)-1H-indol-2-yl)-7-methoxy-1-methyl-1H-benzo[d]imidazol-5-yl)methanone] | 66 | 
7 | COc1cc(C(=O)N2C[C@H]3CC[C@@H]2[C@@H]3N)cc2nc(-c3cc4cccc(Nc5c(C)nn(C)c5C)c4n3CC3CC3(Cl)Cl)n(C)c12 (stereo partly drawn) [Example 176, ((1R,4R,7R)-7-amino-2-azabicyclo[2.2.1]heptan-2-yl)(2-(1-((2,2-dichlorocyclopropyl)meth-yl)-7-((1,3,5-trimethyl-1H-pyrazol-4-yl)amino)-1H-indol-2-yl)-7-methoxy-1-methyl-1H-benzo[d]imidazol-5-yl)methanone] | 76 | 
8 | COc1cc(C(=O)N2C[C@H]3CC[C@@H]2[C@@H]3N)cc2nc(-c3cc4cccc(Nc5cn(C)nc5C)c4n3CC3CC3C)n(C)c12 (stereo partly drawn) [Example 177, ((1R,4R,7R)-7-amino-2-azabicyclo[2.2.1]heptan-2-yl)(2-(7-((1,3-dimethyl-1H-pyrazol-4-yl)amino)-1-((2-methylcyclopropyl)meth-yl)-1H-indol-2-yl)-7-methoxy-1-methyl-1H-benzo[d]imidazol-5-yl)methanone] | 40 | 
9 | COc1cc(C(=O)N2C[C@H]3CC[C@@H]2[C@@H]3N)cc2nc(-c3cc4cccc(Nc5cn(C)nc5C)c4n3CC3CC3(F)F)n(C)c12 (stereo partly drawn) [Example 178, ((1R,4R,7R)-7-amino-2-azabicyclo[2.2.1]heptan-2-yl)(2-(1-((2,2-difluorocyclopropyl)meth-yl)-7-((1,3-dimethyl-1H-pyrazol-4-yl)amino)-1H-indol-2-yl)-7-methoxy-1-methyl-1H-benzo[d]imidazol-5-yl)methanone] | 56 | 
10 | COc1cc(C(=O)N2C[C@H]3CC[C@@H]2[C@@H]3N)cc2nc(-c3cc4cccc(Nc5cn(C)nc5C)c4n3CC3CC3(Cl)Cl)n(C)c12 (stereo partly drawn) [Example 179, ((1R,4R,7R)-7-amino-2-azabicyclo[2.2.1]heptan-2-yl)(2-(1-((2,2-dichlorocyclopropyl)meth-yl)-7-((1,3-dimethyl-1H-pyrazol-4-yl)amino)-1H-indol-2-yl)-7-methoxy-1-methyl-1H-benzo[d]imidazol-5-yl)methanone] | 24 | 
11 | COc1cc(C(=O)N2C[C@H]3CC[C@@H]2[C@@H]3N)cc2nc(-c3cc4cccc(Nc5c(C)nn(C)c5C)c4n3CC3CC3C)n(C)c12 (stereo partly drawn) [Example 180, ((1R,4R,7R)-7-amino-2-azabicyclo[2.2.1]heptan-2-yl)(7-methoxy-1-methyl-2-(1-((2-methylcyclopropyl)meth-yl)-7-((1,3,5-trimethyl-1H-pyrazol-4-yl)amino)-1H-indol-2-yl)-1H-benzo[d]imidazol-5-yl)methanone] | 27 | 
12 | COc1cc(C(=O)N2C[C@H]3CC[C@@H]2[C@@H]3N)cc2nc(-c3cc4cccc(-c5ccccc5CO)c4n3CC3CC3)n(C)c12 [Example 181, ((1R,4R,7R)-7-amino-2-azabicyclo[2.2.1]heptan-2-yl)(2-(1-(cyclopropylmethyl)-7-(2-(hydroxymethyl)phenyl)-1H-indol-2-yl)-7-methoxy-1-methyl-1H-benzo[d]imidazol-5-yl)methanone] |  | 127
13 | COc1cc(C(=O)N2C[C@H]3CC[C@@H]2[C@@H]3N)cc2nc(-c3cc4cccc(C#N)c4n3CC3CC3)n(C)c12 [Example 183, 2-(5-((1R,4R,7R)-7-amino-2-azabicyclo[2.2.1]heptane-2-carbonyl)-7-methoxy-1-methyl-1H-benzo[d]imidazol-2-yl)-1-(cyclopropylmethyl)-1H-indole-7-carbonitrile] |  | 128
14 | COc1cc(C(=O)N2C[C@H]3CC[C@@H]2[C@@H]3N)cc2nc(-c3cc4cccc(C(N)=O)c4n3CC3CC3)n(C)c12 [Example 184, 2-(5-((1R,4R,7R)-7-Amino-2-azabicyclo[2.2.1]heptane-2-carbonyl)-7-methoxy-1-methyl-1H-benzo[d]imidazol-2-yl)-1-(cyclopropylmethyl)-1H-indole-7-carboxamide] |  | 74

Further lines, results first:

Row | IC50 [1] [nM] | IC50 [2] [nM] | SMILES
15 |  | 133 | COc1cc(C(=O)N2C[C@H](N)C[C@@H](F)C2)cc2nc(-c3cc4cccc(OC)c4n3CC3CC3)n(C)c12 [Example 185, ((3R,5R)-3-amino-5-fluoropiperidin-1-yl)(2-(1-(cyclopropylmethyl)-7-methoxy-1H-indol-2-yl)-7-methoxy-1-methyl-1H-benzo[d]imidazol-5-yl)methanone]
16 |  | 18 | COc1cc(C(=O)N2C[C@H]3CC[C@@H]2[C@@H]3N)cc2nc(-c3cc4cccc(C5CCN(C(=O)Nc6ccccc6)CC5)c4n3CC3CC3)n(C)c12 [Example 187, 4-(2-(5-((1R,4R,7R)-7-amino-2-azabicyclo[2.2.1]heptane-2-carbonyl)-7-methoxy-1-methyl-1H-benzo[d]imidazol-2-yl)-1-(cyclopropylmethyl)-1H-indol-7-yl)-N-phenylpiperidine-1-carboxamide]
17 |  | 27 | COc1cc(C(=O)N2C[C@H]3CC[C@@H]2[C@@H]3N)cc2nc(-c3cc4cccc(C5CCN(C(=O)N(C)C)CC5)c4n3CC3CC3)n(C)c12 [Example 188, 4-(2-(5-((1R,4R,7R)-7-amino-2-azabicyclo[2.2.1]heptane-2-carbonyl)-7-methoxy-1-methyl-1H-benzo[d]imidazol-2-yl)-1-(cyclopropylmethyl)-1H-indol-7-yl)-N,N-dimethylpiperidine-1-carboxamide]
18 |  | 18 | COc1cc(C(=O)N2C[C@H](N)C[C@@H](F)C2)cc2nc(-c3cc4cccc(C5CCN(C(C)=O)CC5)c4n3CC3CC3)n(Cc3cnn(C)c3)c12 [Example 189, 1-(4-(2-(5-((3R,5R)-3-amino-5-fluoropiperidine-1-carbonyl)-7-methoxy-1-((1-methyl-1H-pyrazol-4-yl)methyl)-1H-benzo[d]imidazol-2-yl)-1-(cyclopropylmethyl)-1H-indol-7-yl)piperidin-1-yl)ethan-1-one]
19 | 85 |  | COc1cc(C(=O)N2C[C@H]3CC[C@@H]2[C@@H]3N)cc2nc(-c3cc4cccc(-c5ccc6c(c5)C(F)(F)C(=O)N6)c4n3CC3CC3)n(C)c12 [Example 190, 5-(2-(5-((1R,4R,7R)-7-amino-2-azabicyclo[2.2.1]heptane-2-carbonyl)-7-methoxy-1-methyl-1H-benzo[d]imidazol-2-yl)-1-(cyclopropylmethyl)-1H-indol-7-yl)-3,3-difluoroindolin-2-one]
20 | 81 |  | COc1cc(C(=O)N2C[C@H]3CC[C@@H]2[C@@H]3N)cc2nc(-c3cc4cccc(-c5ccc(C(N)=O)cc5F)c4n3CC3CC3)n(C)c12 [Example 191, 4-(2-(5-((1R,4R,7R)-7-amino-2-azabicyclo[2.2.1]heptane-2-carbonyl)-7-methoxy-1-methyl-1H-benzo[d]imidazol-2-yl)-1-(cyclopropylmethyl)-1H-indol-7-yl)-3-fluorobenzamide]
21 | 28 |  | COc1cc(C(=O)N2C[C@H]3CC[C@@H]2[C@@H]3N)cc2nc(-c3cc4cccc(-c5ccc6c(c5)C(C)(O)C(=O)N6)c4n3CC3CC3)n(C)c12 (stereo partly drawn) [Example 192, 5-(2-(5-((1R,4R,7R)-7-amino-2-azabicyclo[2.2.1]heptane-2-carbonyl)-7-methoxy-1-methyl-1H-benzo[d]imidazol-2-yl)-1-(cyclopropylmethyl)-1H-indol-7-yl)-3-hydroxy-3-methylindolin-2-one]
